Measured values taken from ChEMBL document CHEMBL1138593, “Structural modification of 3-arylisoquinolines to isoindolo[2,1-b]isoquinolinones for the development of novel topoisomerase 1 inhibitors with molecular docking study” (2009).
The source made the active and inactive calls. No cut-off for these calls is given here.

How the values were obtained:
[1] = system: SK-OV-3; test: Cytotoxicity against human SKOV3 cells by sulforhodamine B assay; format: functional
[2] = system: HCT-15; test: Cytotoxicity against human HCT15 cells by sulforhodamine B assay; format: functional
[3] = system: A549; test: Cytotoxicity against human A549 cells by sulforhodamine B assay; format: functional
[4] = species on record: Bos taurus; test: Inhibition of calf thymus DNA topoisomerase 1 assessed as relaxation of supercoiled Escherichia coli pBR322 DNA at 100 ug/mL after 30 mins by agarose gel electrophoresis

SMILES	Activity [1]	Activity [2]	Activity [3]	topoisomerase 1 inhibition (active/not active) [4]
COc1cc2c(cc1OC)-c1cc3cc(C)ccc3c(=O)n1C2	36.15 µg/mL	34.98 µg/mL	49.09 µg/mL	inactive
Cc1ccc2cc(-c3ccccc3CO)[nH]c(=O)c2c1	0.22 µg/mL	23.11 µg/mL	12.78 µg/mL	–
COc1ccc2c(c1)Cn1c-2cc2ccc(C)cc2c1=O	15.34 µg/mL	34.33 µg/mL	45.12 µg/mL	inactive
COc1ccc(COCc2ccccc2-c2cc3ccc(C)cc3c(=O)[nH]2)cc1	4.76 µg/mL	4.15 µg/mL	3.33 µg/mL	–
COc1ccc2c(c1)Cn1c-2cc2cc(C)ccc2c1=O	5.52 µg/mL	8.78 µg/mL	5.95 µg/mL	inactive
COCOCc1cc(OC)c(OC)cc1-c1cc2ccccc2c(=O)[nH]1	12.68 µg/mL	24.7 µg/mL	16.04 µg/mL	–
COc1ccc2c(c1)Cn1c-2cc2ccccc2c1=O	12.01 µg/mL	7.29 µg/mL	9.25 µg/mL	Active
Cc1ccc2cc3n(c(=O)c2c1)Cc1ccccc1-3	48.92 µg/mL	35.27 µg/mL	41.44 µg/mL	Active
COc1cc2c(cc1OC)-c1cc3ccccc3c(=O)n1C2	12.69 µg/mL	9.12 µg/mL	36.75 µg/mL	inactive
Cc1ccc2c(=O)[nH]c(-c3ccccc3CO)cc2c1	8.22 µg/mL	3.34 µg/mL	3.66 µg/mL	–
COc1cc(CO)c(-c2cc3ccccc3c(=O)[nH]2)cc1OC	12.58 µg/mL	19.68 µg/mL	7.32 µg/mL	–
CC[C@@]1(O)C(=O)OCc2c1cc1n(c2=O)Cc2cc3ccccc3nc2-1 [CAMPTOTHECIN]	0.035 µg/mL	0.089 µg/mL	0.072 µg/mL	Active
O=c1c2ccccc2cc2n1Cc1ccccc1-2	14.84 µg/mL	43.93 µg/mL	3.7 µg/mL	Active
Cc1ccc2c(=O)n3c(cc2c1)-c1ccccc1C3	44.12 µg/mL	46.35 µg/mL	15.94 µg/mL	Active
COc1cc(CO)c(-c2cc3cc(C)ccc3c(=O)[nH]2)cc1OC	7.8 µg/mL	7.17 µg/mL	22.1 µg/mL	–
COCOCc1cc(OC)ccc1-c1cc2ccccc2c(=O)[nH]1	17.06 µg/mL	21.84 µg/mL	32.98 µg/mL	–
COc1ccc(COCc2ccccc2-c2cc3ccccc3c(=O)[nH]2)cc1	24.66 µg/mL	17.39 µg/mL	26.56 µg/mL	–
COCOCc1cc(OC)ccc1-c1cc2cc(C)ccc2c(=O)[nH]1	31.26 µg/mL	29.26 µg/mL	80.22 µg/mL	–
COc1ccc(-c2cc3ccccc3c(=O)[nH]2)c(CO)c1	0.37 µg/mL	0.21 µg/mL	3.65 µg/mL	–
COc1cc(CO)c(-c2cc3ccc(C)cc3c(=O)[nH]2)cc1OC	0.67 µg/mL	22.45 µg/mL	15.15 µg/mL	–
COc1ccc(COCc2ccccc2-c2cc3cc(C)ccc3c(=O)[nH]2)cc1	2.37 µg/mL	13.27 µg/mL	7.44 µg/mL	–
COCOCc1cc(OC)ccc1-c1cc2ccc(C)cc2c(=O)[nH]1	23.08 µg/mL	40.05 µg/mL	66.52 µg/mL	–
COCOCc1cc(OC)c(OC)cc1-c1cc2ccc(C)cc2c(=O)[nH]1	28.22 µg/mL	31.13 µg/mL	25.02 µg/mL	–
COc1cc2c(cc1OC)-c1cc3ccc(C)cc3c(=O)n1C2	7.23 µg/mL	6.56 µg/mL	24.13 µg/mL	inactive
COc1ccc(-c2cc3ccc(C)cc3c(=O)[nH]2)c(CO)c1	9.69 µg/mL	7.39 µg/mL	10.11 µg/mL	–
O=c1[nH]c(-c2ccccc2CO)cc2ccccc12	21.98 µg/mL	3.88 µg/mL	6.89 µg/mL	–
COc1ccc(-c2cc3cc(C)ccc3c(=O)[nH]2)c(CO)c1	14.59 µg/mL	4.28 µg/mL	19.43 µg/mL	–
COCOCc1cc(OC)c(OC)cc1-c1cc2cc(C)ccc2c(=O)[nH]1	34.54 µg/mL	34.55 µg/mL	43.65 µg/mL	–
